Test results: patent publication US10028966B2 (Avalyn Pharma Inc., priority 2014, dated 2018)
≈ marks a conversion by molar mass, not a printed value. Where two headings read alike, the source gives them in different places.

How the values were obtained:
[1] = Aerosol tolerability analysis of low concentration dosage forms; design: key to Throat Irritation: 1 = none; 5 = strong; conditions: phosphate 5 mM, pH 7, pirfenidone 16 mg/mL; for Throat Irritation: 3.7 micron
Description: Additional observations include maintaining osmolality between about 250 to about 500 mOsmo/kg. The tolerability for formulations with an osmolalty outside this range may be adjusted with modifications in the above formulation parameters and device output and aerosol particle size characteristics.

[2] = test system: inflammasome activation in 264.7 macrophages; assay: Inflammasome second signal activation (ATP, secreted IL-1β); assay type: cell-based; conditions: for IL-1β: LPS +, ATP +; for IC50: Macrophage
[3] = test system: normal human pulmonary fibroblasts; assay: TGFβ1-induced fibroblast differentiation; assay type: cell-based; conditions: for IC50: Homo sapiens, Pulmonary fibroblast, read-out: IC50, TGFβ-induced fibroblast differentiation; for αSMA (Fluorescence): TGFβ +
Description: Briefly, 20 000 cells per well were seeded in black 96 well collagen coated plates and incubate overnight (approximately 24 hours) to allow adherence. […] Cultures were then incubated for 48 hours. […] Separate controls were included for diluted cultures containing TGFβ1 or media alone. At the end of incubation, cells were fixed and stained for imaging and fluorescence plate reader quantitation. Parallel cultures were assessed for cytotoxicity using the MTS dye assay.

[4] = test system: LPS-induced pulmonary inflammasome model; assay: LPS-induced pulmonary inflammasome model (BAL cell counts, BAL IL-1β); assay type: in vivo, Sprague Dawley rats; conditions: for BAL IL-1β, average / BAL cells (%), EO (eosinophil), average / BAL cells (%), LM (lymphocytes), average / BAL cells (%), NP (neutrophils), average / BAL number cells, EO (eosinophil), average / BAL number cells, LM (lymphocytes), average / BAL number cells, NP (neutrophils), average: 24 hours, n = 4; for LPS-induced IL-1β (%): relative to LPS + IT saline = 100
Description: To compare the efficacy of intratracheal, direct-lung aerosol administration and oral gavage, the LPS-induced pulmonary inflammasome model was performed. Briefly, Sprague Dawley rats (200-250 grams) were administered a single dose of LPS by the intratracheal route (IT) using a intubation aerosol delivery device. All IT doses were delivered just above the first pulmonary bifurcation. Sham animals were treated with saline. […] Lungs were lavaged and collected bronchial lavage fluid (BAL) was assessed for total cell count, neutrophils, macrophage, eosinophils and lymphocytes. BAL was also assessed for IL-1b.

[5] = Aqueous solubility, tonicity salt, dissolution and taste observations on pirfenidone formulations; assay type: physicochemical
Description: However, at this (and lower) concentration it was determined that salt addition was required to improve acute tolerability upon inhalation of a nebulized solution (otherwise a hypotonic solution). To address tonicity, NaCl or MgCl2 were added. […] This effect was not observed at ˜pH 8.

[6] = cited from earlier work; for Cmax: read-out: oral Cmax in IPF patients
[7] = 0.5 mg/kg intratracheal, single dose with LPS, BAL after 24 hours
[8] = 30 mg/kg oral gavage 2 hours before LPS (60-fold larger dose)
[9] = LPS + PO pirfenidone 30.0 mg/kg

## Cc1ccc(=O)n(-c2ccccc2)c1 [pirfenidone, 5-methyl-1-phenyl-2-(1H)-pyridone]
[1]; NaCl 50 mM
  Est. Osmolality: 200 mOsmo/Kg
  Throat Irritation: 5
[1]; NaCl 150 mM
  Est. Osmolality: 400 mOsmo/Kg
  Throat Irritation: 3
[2]; Longer-term exposure, 40 min > ATP, pirfenidone 5 mcg/mL
  IL-1β: 1.4 pg/mL
[2]; Longer-term exposure, 40 min > ATP, pirfenidone 25 mcg/mL
  IL-1β: 1.1 pg/mL
[2]; Longer-term exposure, 40 min > ATP, pirfenidone 125 mcg/mL
  IL-1β: 0.9 pg/mL
[2]; Longer-term exposure, 40 min > ATP, pirfenidone 625 mcg/mL
  IL-1β: 0.4 pg/mL
[2]; 40 min, second (40 minute) sampling point alone, short-term exposure
  IC50: ~25 µg/mL (≈ 135 µM)
[2]; sum of short-term sampling points and longer-term sampling point
  IC50: ~625 µg/mL (≈ 3370 µM)
[2]; Short-term exposure, 10 + 40 min > ATP (sum of sampling points), pirfenidone 5 mcg/mL
  IL-1β: 1.1 pg/mL
[2]; Short-term exposure, 10 + 40 min > ATP (sum of sampling points), pirfenidone 25 mcg/mL
  IL-1β: 1.0 pg/mL
[2]; Short-term exposure, 10 + 40 min > ATP (sum of sampling points), pirfenidone 125 mcg/mL
  IL-1β: 1.0 pg/mL
[2]; Short-term exposure, 10 + 40 min > ATP (sum of sampling points), pirfenidone 625 mcg/mL
  IL-1β: 0.6 pg/mL
[2]; Short-term exposure, 10 min > ATP, pirfenidone 5 mcg/mL
  IL-1β: 81.5 pg/mL
[2]; Short-term exposure, 10 min > ATP, pirfenidone 25 mcg/mL
  IL-1β: 100.0 pg/mL
[2]; Short-term exposure, 10 min > ATP, pirfenidone 125 mcg/mL
  IL-1β: 118.7 pg/mL
[2]; Short-term exposure, 10 min > ATP, pirfenidone 625 mcg/mL
  IL-1β: 66.3 pg/mL
[2]; Short-term exposure, 40 min > ATP, pirfenidone 5 mcg/mL
  IL-1β: 95.8 pg/mL
[2]; Short-term exposure, 40 min > ATP, pirfenidone 25 mcg/mL
  IL-1β: 50.4 pg/mL
[2]; Short-term exposure, 40 min > ATP, pirfenidone 125 mcg/mL
  IL-1β: 36.3 pg/mL
[2]; Short-term exposure, 40 min > ATP, pirfenidone 625 mcg/mL
  IL-1β: 27.3 pg/mL
[3]; 48 h
  IC50: ~25 µg/mL (≈ 135 µM)
[3]
  IC50: ~125 µg/mL (≈ 675 µM)
[3]; Table 36, Long-term exposure (48 hours), pirfenidone 5 mcg/mL
  αSMA (Fluorescence): 4.72
[3]; Table 36, Long-term exposure (48 hours), pirfenidone 25 mcg/mL
  αSMA (Fluorescence): 4.04
[3]; Table 36, Long-term exposure (48 hours), pirfenidone 125 mcg/mL
  αSMA (Fluorescence): 3.15
[3]; Table 36, Long-term exposure (48 hours), pirfenidone 625 mcg/mL
  αSMA (Fluorescence): 2.47
[3]; Table 36, Short-term exposure, pirfenidone 5 mcg/mL
  αSMA (Fluorescence): 6.76
[3]; Table 36, Short-term exposure, pirfenidone 25 mcg/mL
  αSMA (Fluorescence): 5.34
[3]; Table 36, Short-term exposure, pirfenidone 625 mcg/mL
  αSMA (Fluorescence): 3.57
[3]; Table 37 (broader dose-response), Short-term exposure, pirfenidone 1 mcg/mL
  αSMA (Fluorescence): 7.65
[3]; Table 37 (broader dose-response), Short-term exposure, pirfenidone 10 mcg/mL
  αSMA (Fluorescence): 7.75
[3]; Table 37 (broader dose-response), Short-term exposure, pirfenidone 100 mcg/mL
  αSMA (Fluorescence): 5.61
[3]; Table 37 (broader dose-response), Short-term exposure, pirfenidone 1000 mcg/mL
  αSMA (Fluorescence): 2.27
[4]; 0.5 mg/kg IT
  lung tissue Cmax (estimated): ~83 mcg/gram
[4]; [7]
  LPS-induced inflammatory cell infiltration (BAL): negated
  reduction of LPS-induced BAL IL-1β levels: 62%
[4]; [8]
  effect on LPS-induced BAL IL-1β levels: no effect
  effect on LPS-induced inflammatory cell infiltration (BAL): no effect
[4]; LPS + IT pirfenidone 0.5 mg/kg
  BAL IL-1β, average: 36.2 pg/mL
  BAL cells (%), EO (eosinophil), average: 0.7%
  BAL cells (%), LM (lymphocytes), average: 1.0%
  BAL cells (%), NP (neutrophils), average: 13.0%
  BAL number cells, EO (eosinophil), average: 0.0 1 × 10e5
  BAL number cells, LM (lymphocytes), average: 0.1 1 × 10e5
  BAL number cells, NP (neutrophils), average: 0.7 1 × 10e5
  LPS-induced IL-1β (%): 38%
[4]; [9]
  BAL IL-1β, average: 105.9 pg/mL
  BAL cells (%), EO (eosinophil), average: 0.6%
  BAL cells (%), LM (lymphocytes), average: 0.9%
  BAL cells (%), NP (neutrophils), average: 36.4%
  BAL number cells, EO (eosinophil), average: 0.3 1 × 10e5
  BAL number cells, LM (lymphocytes), average: 0.3 1 × 10e5
  BAL number cells, NP (neutrophils), average: 13.2 1 × 10e5
  LPS-induced IL-1β (%): 113%
[5]; MgCl2 added, 1:1 and 1:2 mole ratios of magnesium to pirfenidone
  formulation stability on storage: maintained a stable, soluble solution
[5]; aqueous solution, aqueous buffer, across a pH range of about 4.0 to about 8.0
  solubility: ~17 mg/mL
[5]; ~17 mg/mL pirfenidone, NaCl added for tonicity, ambient storage
  formulation stability on storage: precipitation upon ambient storage
[6]; 801 mg oral pirfenidone, human-measured value
  time plasma level at or greater than 5 mcg/mL: 4 h
[6]; fasting-state
  oral Cmax in IPF patients: about 15.7 mcg/mL
  Cmax: ~84 µM
[6]; oral, fed-state
  increase in Tmax: seven-fold
  reduction in Cmax: ~50%
  reduction in overall exposure: 10-15%
[6]; recommended fed-state
  oral Cmax in IPF patients: about 7.9 mcg/mL
  Cmax: ~42 µM
